Laboratory results from patent US8829014B2, “Thiazole and thiophene analogues, and their use in treating autoimmune diseases and cancers” (Board of Supervisors of Louisiana State University and …, priority 2006, dated 2014).
Like-named read-outs stand apart in the source and are kept apart here.

Experiments:
NF-κB = NF-κB inhibitor screen: basal NF-κB-dependent luciferase expression in HEK/NF-κB cell line; format: cell-based; conditions: for inhibition at 1 µM: read-out: NFkB inhibition @ 1 uM; for inhibition of basal NF-κB-dependent luciferase expression: 3.3 μM (FIG. 12)
Source text: Development of NF-κB and AP-1 Screens: Two HEK293 cell lines were purchased from Panomics. One cell line was stably transfected with a plasmid in which luciferase expression is regulated by six copies of the NF-κB transcriptional element (5′-[…]-3′); and the other cell line was stably transfected with a plasmid in which luciferase expression is regulated by three copies of the AP-1 transcriptional element (TGACTAA). To test the biological activity of the promoters, the HEK/NF-κB cell line was stimulated with TNF-α (20 ng/ml) for 24 hours, and the HEK/AP-1 cell line was stimulated with PMA (10 ng/ml) for 24 hours. […] In addition, a pyrimidine carboxyimide that had previously been shown (ref. 58) to be an inhibitor of transcription mediated by NF-κB and AP-1 reduced luciferase activity by approximately 40% in each of the NF-κB and AP-1 cell lines.
The above two assays analyzed the effects of the compounds on post-transcriptional gene regulation, which is known to play a key role in cancer and inflammation. By contrast, the NF-κB assay and the following assay (AP-1) test whether the compounds act at the transcriptional level. Thirty-nine representative compounds were screened in an HEK/NF-κB cell line. HEK cells were stably transfected with a plasmid expressing luciferase under the control of the NF-κB promoter. These transfected cells were plated on a 96-well plate. As above, initial screening was carried out at 1.0 μM by adding compound in DMSO (0.3%) twenty-four hours after plating. Each compound was added to each of triplicate wells. DMSO (0.3%) was added to one set of wells as a control. Luciferase activity was determined using Promega's Brite-Glo kit, and the mean for each sample was normalized to that for DMSO.
The fourteen representative compounds identified in the eIF4E screen as interesting (Numbered 2, 3, 4, 6, 8, 11, 15, 20, 21, 24, 25, 32, 33, and 35) were then tested for luciferase activity in a six-point dose response (10 nM, 33 nM, 100 nM, 330 nM, 1000 nM, and 3300 nM). Screening was carried out as described above by monitoring the effects of the compounds on basal NF-κB-dependent luciferase expression. Each dose was used out in triplicate, and repeated between two and four times. Results were normalized by the average expression level at the lowest concentration level, as described above.

AP-1 = AP-1 inhibitor screen: basal AP-1-dependent luciferase expression in HEK/AP-1 cell line; format: cell-based; conditions: 1 uM, determined as described in Example 398; for inhibition at 1 µM: AP1
Source text: Development of NF-κB and AP-1 Screens: Two HEK293 cell lines were purchased from Panomics. One cell line was stably transfected with a plasmid in which luciferase expression is regulated by six copies of the NF-κB transcriptional element (5′-[…]-3′); and the other cell line was stably transfected with a plasmid in which luciferase expression is regulated by three copies of the AP-1 transcriptional element (TGACTAA). To test the biological activity of the promoters, the HEK/NF-κB cell line was stimulated with TNF-α (20 ng/ml) for 24 hours, and the HEK/AP-1 cell line was stimulated with PMA (10 ng/ml) for 24 hours.
HEK cells were stably transfected with a plasmid expressing luciferase under the control of the AP-1 promoter. The transfected cells were plated on a 96-well plate for 24 hr. Then 1.0 μM of each compound in DMSO (0.3%) was added to triplicate wells and incubated for 48 hr. DMSO (0.3%) was added to one set of triplicate wells as a control. Luciferase activity was determined using Promega's Brite-Glo kit, and the mean for each sample was normalized to that for DMSO.
Screening was carried out as described above, monitoring the compounds' effects on basal AP-1-dependent luciferase expression. Each dose-response experiment was carried out in triplicate and repeated between two and four times.

carageenan-induced edema = assay: Carrageenan-induced rat paw edema test (anti-inflammatory activity); format: in vivo, Sprague-Dawley rats; conditions: carrageenan-induced rat paw edema, defined in Example 397; for inhibition in vivo at 50 mg/kg: po, 3 h, read-out: % Protection
In short: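 Sprague-Dawley rats (male and female, 150-250 g), fasted 18 h, given compound orally at 50 mg/kg in 0.1% sodium CMC (alternatively i.v., s.c. or i.p.). 1% carrageenan injected sub-plantar in right hind paw 1 h later. Paw displacement read again 3 h later; % protection = [(Control−Test)/Control]×100 versus saline control.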

[1] = 1 uM, determined as described in Example 398

Molecule | inhibition at 1 µM (NF-κB; [1]) | inhibition at 1 µM (AP-1) | inhibition in vivo at 50 mg/kg (carageenan-induced edema; Rattus norvegicus) | inhibition of basal NF-κB-dependent luciferase expression (NF-κB) | inhibition in vivo at 50 mg/kg (carageenan-induced edema) | NFkB inhibition @ 1 uM (NF-κB; [1]) | AP-1 inhibition @ 1 uM (AP-1) | % Protection (carageenan-induced edema)
CNc1nc(-c2ccccc2)c(-c2nc3ccccc3c(=O)n2-c2ccccc2OC)s1 [Example 205, 2-(2-Methylamino-4-phenyl-thiazol-5-yl)-3-(2-methoxyphenyl)-3H-quinazolin-4-one] | 61% | 90% | 56% |  |  |  |  | 
COc1cccc(-n2c(-c3sc(Nc4ccccc4)nc3-c3ccccc3)nc3ccccc3c2=O)c1 [Example 213, 3-(3-methoxyphenyl)-2-(4-phenyl-2-phenylamino-thiazol-5-yl)-3H-quinazolin-4-one] | 35% | 33% | 38% |  |  |  |  | 
COc1ccc(-n2c(-c3sc(Nc4ccc(Cl)cc4)nc3C)nc3ccccc3c2=O)cc1 [Example 217, 2-[2-(4-Chlorophenylamino)-4-methyl-thiazol-5-yl]-3-(4-methoxyphenyl)-3H-quinazolin-4-one] | -38% | -43% | 50% |  |  |  |  | 
CCOC(=O)Nc1nc(-c2ccccc2)c(-c2nc3ccccc3c(=O)n2-c2ccc(OC)cc2)s1 [Example 218, [5-(4-Oxo-3-(4-methoxyphenyl)-3,4-dihydro-quinazolin-2-yl)-4-phenyl-thiazol-2-yl]-carbamic acid ethyl ester] | 22% | 24% | 20% |  |  |  |  | 
COc1ccc(-n2c(-c3sc(Nc4ccccc4)nc3-c3ccccc3)nc3ccccc3c2=O)cc1 [Example 221, 3-(4-Methoxyphenyl)-2-(4-phenyl-2-phenylamino-thiazol-5-yl)-3H-quinazolin-4-one] | 79% | 18% | 85% |  |  |  |  | 
COc1ccc(-n2c(-c3sc(NC(=O)c4ccccc4)nc3-c3ccccc3)nc3ccccc3c2=O)cc1 [Example 222, N-[5-(4-Oxo-3-(4-methoxyphenyl)-3,4-dihydro-quinazolin-2-yl)-4-phenyl-thiazole-2-yl]benzamide] | 15% | 0% | 24% |  |  |  |  | 
Cc1nc(Nc2ccc(Cl)cc2)sc1-c1nc2ccccc2c(=O)n1-c1ccccc1Cl [Example 230, 2-[2-(4-Chlorophenylamino)-4-methyl-thiazol-5-yl]-3-(2-chloro-phenyl)-3H-quinazolin-4-one] | 60% | 21% | 58% |  |  |  |  | 
CCOC(=O)Nc1nc(C)c(-c2nc3ccccc3c(=O)n2-c2ccc(Cl)cc2)s1 [Example 242, (4-Methyl-5-(4-oxo-3-(4-chloro-phenyl)-3,4-dihydro-quinazolin-2-yl)-thiazol-2-yl)-carbamic acid ethyl ester] | 53% | 12% | 65% | about 50% |  |  |  | 
Cc1nc(Nc2ccccc2)sc1-c1nc2ccccc2c(=O)n1-c1ccc(Cl)cc1 [Example 245, 2-(4-Methyl-2-phenylamino-thiazol-5-yl)-3-(4-chloro-phenyl)-3H-quinazolin-4-one] | 79% | 82% | 72% |  |  |  |  | 
Cc1nc(Nc2ccc(Cl)cc2)sc1-c1nc2ccccc2c(=O)n1-c1ccc(Cl)cc1 [Example 246, 2-[2-(4-Chlorophenylamino)-4-methyl-thiazol-5-yl]-3-(4-chloro-phenyl)-3H-quinazolin-4-one] | 96% | 74% |  | about 50% | 38% |  |  | 
CCOC(=O)Nc1nc(-c2ccccc2)c(-c2nc3ccccc3c(=O)n2-c2ccc(Cl)cc2)s1 [Example 249, [5-(4-Oxo-3-(4-Chloro-phenyl)-3,4-dihydro-quinazolin-2-yl)-4-phenyl-thiazol-2-yl]-carbamic acid ethyl ester] | 16% | 0% | 81% |  |  |  |  | 
COC(=O)Nc1nc(-c2ccccc2)c(-c2nc3ccccc3c(=O)n2-c2ccc(Cl)cc2)s1 [Example 250, [5-(4-Oxo-3-(4-Chloro-phenyl)-3,4-dihydro-quinazolin-2-yl)-4-phenyl-thiazol-2-yl]-carbamic acid methyl ester] | 17% | 5% | 83% |  |  |  |  | 
CNc1nc(-c2ccccc2)c(-c2nc3ccccc3c(=O)n2-c2ccc(Cl)cc2)s1 [Example 251, 2-(2-Methylamino-4-phenyl-thiazol-5-yl)-3-(4-Chloro-phenyl)-3H-quinazolin-4-one] | 85% | 69% |  |  | 92% |  |  | 
O=c1c2ccccc2nc(-c2sc(Nc3ccccc3)nc2-c2ccccc2)n1-c1ccc(Cl)cc1 [Example 252, 3-(4-Chloro-phenyl)-2-(4-phenyl-2-phenylamino-thiazol-5-yl)-3H-quinazolin-4-one] | 80% | 21% | 81% |  |  |  |  | 
O=C(Nc1nc(-c2ccccc2)c(-c2nc3ccccc3c(=O)n2-c2ccc(Cl)cc2)s1)c1ccccc1 [Example 253, N-[5-(4-Oxo-3-(4-Chloro-phenyl)-3,4-dihydro-quinazolin-2-yl)-4-phenyl-thiazole-2-yl]benzamide] | 87% | 28% | 83% |  |  |  |  | 
O=c1c2ccccc2nc(-c2sc(Nc3ccc(Cl)cc3)nc2-c2ccccc2)n1-c1ccc(Cl)cc1 [Example 256, 2-[2-(4-Chloro-phenylamino)-4-phenyl-thiazol-5-yl]-3-(4-Chloro-phenyl)-3H-quinazolin-4-one] | 99% | 61% | 84% |  |  |  |  | 
CNc1nc(C)c(-c2nc3ccccc3c(=O)n2-c2ccc(C(C)=O)cc2)s1 [Example 261, 2-(4-Methyl-2-methylamino-thiazol-5-yl)-3-(4-acetyl-phenyl)-3H-quinazolin-4-one] | 71% | -33% | 42% |  |  |  |  | 
CC(=O)c1ccc(-n2c(-c3sc(Nc4ccc(Cl)cc4)nc3C)nc3ccccc3c2=O)cc1 [Example 263, 2-[2-(4-Chlorophenylamino)-4-methyl-thiazol-5-yl]-3-(4-acetyl-phenyl)-3H-quinazolin-4-one] | 0% | 2% | 13% |  |  |  |  | 
CCOC(=O)Nc1nc(-c2ccccc2)c(-c2nc3ccccc3c(=O)n2-c2ccc(C(C)=O)cc2)s1 [Example 264, [5-(4-Oxo-3-(4-acetyl-phenyl)-3,4-dihydro-quinazolin-2-yl)-4-phenyl-thiazol-2-yl]-carbamic acid ethyl ester] | 25% | 25% | 40% |  |  |  |  | 
CC(=O)c1ccc(-n2c(-c3sc(Nc4ccc(Cl)cc4)nc3-c3ccccc3)nc3ccccc3c2=O)cc1 [Example 271, 2-[2-(4-Chlorophenylamino)-4-phenyl-thiazol-5-yl]-3-(4-acetyl-phenyl)-3H-quinazolin-4-one] | -12% | 31% | 23% |  |  |  |  | 
{5-[3-(4-Methoxy-phenyl)-4-oxo-3,4-dihydro-quinazolin-yl]-thiazol-2-yl}-carbamic acid ethyl ester [Example 215] |  |  |  |  |  | 34 | −6 | 25%
